Reference: patent US20090061006A1, “Layered Nanoparticles for Sustained Release of Small Molecules” (priority 2006, published 2009)
Where two headings read alike, the source gives them in different places. Where a SMILES comes first, the peptide text is derived from it. [ ]: non-standard residue; d: D form. dPhe(4-Cl) = N[C@H](Cc1ccc(Cl)cc1)C(=O)O; d2Nal = N[C@H](Cc1ccc2ccccc2c1)C(=O)O; dCit = NC(=O)NCCC[C@@H](N)C(=O)O; d3Pal = N[C@H](Cc1cccnc1)C(=O)O

What was measured:
[1] = tested on: human ovarian cancer cell lines; conditions: cited from earlier work
[2] = tested on: human endometrial cancer cell lines; conditions: cited from earlier work
[3] = cited from earlier work
[4] = in vivo
[5] = tested on: breast cancer xenograft; conditions: intravenously injected, cited from earlier work
[6] = tested on: MDA-MB-435S human breast cancer cells; experiment: Cytotoxicity study, thiazolyl Blue (MTT) cell viability; format: cell-based; conditions: 9 hours incubation
Experimental: MDA-MB-435S cells were seeded into 12 well plates and grown in culture media containing Leibovitz's L-15 medium, 10% fetal bovine serum, 0.01 mg/mL bovine insulin, 100 IU/mL penicillin, and 100 μg/mL streptomycin. The cells were kept in tightly closed flasks at 37° C. in an incubator and grown to 70% confluence. Treatments with free Phor21-βCG(ala) were conducted at concentrations of 5, 20, and 100 μM. Treatments with silica-peptide nanoshells were conducted at corresponding amounts, equivalent to total Phor21-βCG(ala) concentrations of 5, 20, and 100 μM. On a separate plate silica nanoshells without peptide (15 mg/mL culture medium) were added to MDA-MB-435S cell cultures to determine their effect on cell viability. In all incubations, added saline was used as a control. Total incubation time was 9 hours at 37° C. Cell viability was measured in a thiazolyl Blue assay using [3-(4,5)-Dimethylthiazol-2-yl]-2,5 Diphenyltetrazolium Bromide—MTT. Cleavage of the tetrazolium ring by active mitochondria was used as a measure of the number of living cells. Statistical significance was determined using analysis of variance (ANOVA) and a two-tailed Student's t-test. Differences were considered significant at p<0.05.

[7] = tested on: cancer cells; experiment: Potency in destroying cancer cells; format: cell-based
[8] = cited from earlier work; remark: listed apart in the source

CC(=O)N[C@H](Cc1ccc2ccccc2c1)C(=O)N[C@H](Cc1ccc(Cl)cc1)C(=O)N[C@H](Cc1cccnc1)C(=O)N[C@@H](CO)C(=O)N[C@@H](Cc1ccc(O)cc1)C(=O)N[C@H](CCCNC(N)=O)C(=O)N[C@@H](CC(C)C)C(=O)N[C@@H](CCCNC(=N)N)C(=O)N1CCC[C@H]1C(=O)N[C@H](C)C(N)=O [Cetrorelix] (Ac-[d2Nal][dPhe(4-Cl)][d3Pal]SY[dCit]LRP[dA]-NH2)
in vitro proliferation [1]: inhibited
in vitro proliferation [2]: inhibited

C[C@@H]1C[C@H]2[C@@H]3CCC4=CC(=O)C=C[C@]4(C)[C@@]3(F)[C@@H](O)C[C@]2(C)[C@@]1(O)C(=O)CO [Dexamethasone]
solubility in water [3]: insoluble

CC(C)C[C@H](NC(=O)[C@@H](Cc1c[nH]c2ccccc12)NC(=O)[C@H](Cc1ccc(O)cc1)NC(=O)[C@H](CO)NC(=O)[C@H](Cc1c[nH]c2ccccc12)NC(=O)[C@H](Cc1c[nH]cn1)NC(=O)[C@@H]1CCC(=O)N1)C(=O)N[C@@H](CCCNC(=N)N)C(=O)N1CCC[C@H]1C(=O)NCC(N)=O [triptorelin]
in vitro proliferation [1]: inhibited
in vitro proliferation [2]: inhibited

Phor21-βCG(ala): 35-residue conjugate peptide KFAKFAKKFAKFAKKFAKFAK-SYAVASAQAALAAR (SEQ ID NO. 1): lytic peptide Phor21 plus gonadotropin analog ligand βCG(ala) (KFAKFAKKFAKFAKKFAKFAKSYAVASAQAALAAR; Phor21-beta-CG(ala) Peptide)
time after which free peptide is almost completely destroyed in circulation [4]: about three
cell death in treated tumors ([5]; 8 mg/kg body weight, p<0.01): lower
cell death in treated tumors ([5]; 0.2 and 2 mg/kg body weight, p<0.05): significantly higher
activity at 100 micromolar versus 20 micromolar [6]: significantly lower activity
toxicity against breast cancer cells ([6]; free peptide, 5, 20 and 100 μM, N=6): destroyed

Phor21: membrane-disrupting lytic peptide, residues 1-21 of SEQ ID NO. 1 (KFAKFAKKFAKFAKKFAKFAK; Phor21-beta-CG(ala) Peptide)
potency in destroying cancer cells versus Hecate or Phor14 [7]: more potent

luteinizing hormone releasing hormone [LHRH]
half-life in vivo [8]: ~20 min
